Structures are written as SMILES.

Holding throughout (assay type): cell-based
One assay concerns MDA-MB-231 cells. In words: MDA-MB-231 cell proliferation assay (Cell-Titer-Glo, 120 hr). The settings on record: for EC50: Homo sapiens, MDA-MB-231, 120 h, read-out: MDA-MB 231 Cell Prolif. 120 hr EC50; for MDA-MB 231 Cell Prolif. 120 hr YMin (%): minimal percent of DMSO control observed. The essentials: (§1)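 MKN45 (400/well) and MDA-MB-231 (800/well) cells in RPMI with 10% FBS were exposed to 10-point half-log doses from 1 or 10 uM (0.1% DMSO) for 120 h at 37 °C. Viability was read by CellTiter-Glo luminescence. EC50 came from blank-subtracted, %DMSO four-parameter fits, with Ymin-obs as the lowest %DMSO observed.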

A further assay relates to MKN45 cells. Nature of the assay: MKN45 cell proliferation assay (Cell-Titer-Glo, 120 hr). Conditions: for EC50: Homo sapiens, MKN-45, 120 h, read-out: MKN45 Cell Prolif. 120 hr EC50; for MKN45 Cell Prolif. 120 hr YMin (%): minimal percent of DMSO control observed. The essentials: as §1
The target of the next assay is T1, WEE1 (Homo sapiens, UniProt P30291+Q96SW2).
T1 construct: C-terminal ePL-tagged (DiscoverX, Fremont, CA) full-length WEE1 expression construct; expressed in transfected cells; host or cells: LentiX-HEK293T (Invitrogen), lentivirally transduced; the cells also over-express GSPT1-GN
T1 sequence (P30291 whole entry): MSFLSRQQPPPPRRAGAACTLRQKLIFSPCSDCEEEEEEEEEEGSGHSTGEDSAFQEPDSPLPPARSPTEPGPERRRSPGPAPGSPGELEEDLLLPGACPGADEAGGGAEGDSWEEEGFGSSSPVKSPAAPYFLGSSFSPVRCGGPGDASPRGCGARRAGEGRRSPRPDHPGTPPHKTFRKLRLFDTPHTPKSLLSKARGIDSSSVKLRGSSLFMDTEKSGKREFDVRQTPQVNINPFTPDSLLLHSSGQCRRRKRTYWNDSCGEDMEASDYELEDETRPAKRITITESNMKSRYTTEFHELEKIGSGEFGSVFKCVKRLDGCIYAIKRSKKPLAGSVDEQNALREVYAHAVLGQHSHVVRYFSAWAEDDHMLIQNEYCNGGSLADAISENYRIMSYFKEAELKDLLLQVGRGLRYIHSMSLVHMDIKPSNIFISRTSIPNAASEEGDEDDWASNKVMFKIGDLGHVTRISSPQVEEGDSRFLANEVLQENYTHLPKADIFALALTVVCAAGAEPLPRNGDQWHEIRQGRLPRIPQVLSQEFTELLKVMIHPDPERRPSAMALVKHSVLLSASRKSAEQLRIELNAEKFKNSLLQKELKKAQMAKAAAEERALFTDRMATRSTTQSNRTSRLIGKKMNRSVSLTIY
T1 sequence (Q96SW2 whole entry): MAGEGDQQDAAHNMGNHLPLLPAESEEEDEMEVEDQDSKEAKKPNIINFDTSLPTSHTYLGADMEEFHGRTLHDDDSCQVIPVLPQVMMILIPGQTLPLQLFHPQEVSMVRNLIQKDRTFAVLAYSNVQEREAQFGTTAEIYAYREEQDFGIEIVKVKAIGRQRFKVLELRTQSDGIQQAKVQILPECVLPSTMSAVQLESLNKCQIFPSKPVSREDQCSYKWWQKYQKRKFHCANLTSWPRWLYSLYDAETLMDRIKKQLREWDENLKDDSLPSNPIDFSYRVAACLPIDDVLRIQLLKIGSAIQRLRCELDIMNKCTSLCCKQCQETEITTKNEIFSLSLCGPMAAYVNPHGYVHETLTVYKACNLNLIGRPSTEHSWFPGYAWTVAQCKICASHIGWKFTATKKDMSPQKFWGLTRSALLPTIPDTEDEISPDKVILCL
T1 sequence (Q16531 whole entry partner): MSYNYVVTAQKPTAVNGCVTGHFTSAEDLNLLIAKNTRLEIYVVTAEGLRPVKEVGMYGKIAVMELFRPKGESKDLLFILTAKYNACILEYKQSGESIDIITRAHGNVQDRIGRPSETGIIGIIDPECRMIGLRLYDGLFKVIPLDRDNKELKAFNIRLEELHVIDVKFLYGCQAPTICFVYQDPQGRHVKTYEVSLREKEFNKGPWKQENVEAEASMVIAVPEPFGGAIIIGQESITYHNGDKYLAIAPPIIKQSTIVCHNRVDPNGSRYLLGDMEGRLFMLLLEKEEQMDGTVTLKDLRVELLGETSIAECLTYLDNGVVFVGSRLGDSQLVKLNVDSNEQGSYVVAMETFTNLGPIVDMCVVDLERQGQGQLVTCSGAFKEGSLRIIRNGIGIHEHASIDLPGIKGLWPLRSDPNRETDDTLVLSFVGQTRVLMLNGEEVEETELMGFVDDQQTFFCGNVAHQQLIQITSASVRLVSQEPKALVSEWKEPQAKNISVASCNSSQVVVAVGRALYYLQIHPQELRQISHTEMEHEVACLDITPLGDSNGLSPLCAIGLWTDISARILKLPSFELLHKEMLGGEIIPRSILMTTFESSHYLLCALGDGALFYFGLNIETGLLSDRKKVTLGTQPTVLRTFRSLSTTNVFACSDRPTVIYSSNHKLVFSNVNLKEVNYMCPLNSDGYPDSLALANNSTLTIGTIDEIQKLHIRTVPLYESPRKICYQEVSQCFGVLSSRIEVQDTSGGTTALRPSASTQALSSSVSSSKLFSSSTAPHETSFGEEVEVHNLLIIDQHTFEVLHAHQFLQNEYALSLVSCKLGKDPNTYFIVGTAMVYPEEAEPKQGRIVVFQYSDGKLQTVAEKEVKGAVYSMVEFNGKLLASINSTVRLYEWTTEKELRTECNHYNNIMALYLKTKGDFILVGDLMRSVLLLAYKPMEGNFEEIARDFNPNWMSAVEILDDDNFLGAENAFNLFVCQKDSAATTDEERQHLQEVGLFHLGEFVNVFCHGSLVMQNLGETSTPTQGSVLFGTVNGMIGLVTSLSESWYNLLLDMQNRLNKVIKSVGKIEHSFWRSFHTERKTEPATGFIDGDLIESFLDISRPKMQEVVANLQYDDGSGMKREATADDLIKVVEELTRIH
In words: WEE1-ePL degradation assay (293T-LentiX, InCELL Hunter luminescence, 4 hr). The settings on record: for DC50: LentiX-HEK293T cells expressing WEE1-ePL, 4 hr incubation, read-out: 293T-LentiX WEE1-ePL Degradation 4 hr EC50; for 293T-LentiX WEE1-ePL Degradation 4 hr YMin (%): lower limit of fit, % of DMSO control signal remaining. The essentials: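 LentiX-HEK293T cells expressing C-terminally ePL-tagged full-length WEE1 plus non-degradable GSPT1-GN (G575N, N-terminal 158 aa truncated). Treated 4 h at 37 °C with a 10-point, 3-fold series from 1 or 10 µM, then read by InCELL Hunter luminescence. EC50 from four-parameter logistic fit, Ymax set by DMSO control.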

As for `COC[C@@H]1CN(Cc2cc(F)c3nc(COC4CCN(C)CC4)ccc3c2)C[C@H]1Oc1ccc2c(c1)CN([C@H]1CCC(=O)NC1=O)C2=O` [Example 34, (3S)-3-(5-{[(3S,4S)-1-[(8-fluoro-2-{[(1-methylpiperidin-4-yl)oxy]methyl}quinolin-6-yl)methyl]-4-(methoxymethyl)pyrrolidin-3-yl]oxy}-1-oxo-2,3-dihydro-1H-isoindol-2-yl)piperidine-2,6-dione], in the assay with MDA-MB-231 cells, the EC50 (in general, the midpoint of the concentration-response curve) is 108 nM and the “MDA-MB 231 Cell Prolif. 120 hr YMin (%)” value is recorded as 30.7%. Moreover, in the assay on MKN45 cells, the concentration for a half-maximal effect (EC50) amounted to 4 nM and the “MKN45 Cell Prolif. 120 hr YMin (%)” value worked out at 6.9%. Further, at WEE1, the DC50 turned out to be 4 nM and the “293T-LentiX WEE1-ePL Degradation 4 hr YMin (%)” value worked out at 21.8%.

Take `COC[C@@H]1CN(Cc2cc(F)c3nc(N4CCN(CC(F)(F)F)CC4)ncc3c2)C[C@H]1Oc1ccc2c(c1)CN([C@H]1CCC(=O)NC1=O)C2=O` [Example 35, (3S)-3-(5-{[(3S,4S)-1-({8-fluoro-2-[4-(2,2,2-trifluoroethyl)piperazin-1-yl]quinazolin-6-yl}methyl)-4-(methoxymethyl)pyrrolidin-3-yl]oxy}-1-oxo-2,3-dihydro-1H-isoindol-2-yl)piperidine-2,6-dione]: in the assay on MDA-MB-231 cells, the concentration for a half-maximal effect (EC50) amounted to 33 nM and the “MDA-MB 231 Cell Prolif. 120 hr YMin (%)” value amounted to 16.7%. For the same molecule, in the assay with MKN45 cells, the EC50 worked out at 2 nM and the “MKN45 Cell Prolif. 120 hr YMin (%)” value is reported as 10.0%. In addition, at WEE1, the DC50 amounted to 1 nM and the “293T-LentiX WEE1-ePL Degradation 4 hr YMin (%)” value was determined as 28.1%.

For `COC[C@@H]1CN(Cc2cc(F)c3nc(C4CN(C(C)=O)C4)ccc3c2)C[C@H]1Oc1ccc2c(c1)CN([C@H]1CCC(=O)NC1=O)C2=O` [Example 36, (3S)-3-(5-{[(3S,4S)-1-{[2-(1-acetylazetidin-3-yl)-8-fluoroquinolin-6-yl]methyl}-4-(methoxymethyl)pyrrolidin-3-yl]oxy}-1-oxo-2,3-dihydro-1H-isoindol-2-yl)piperidine-2,6-dione], in the assay with MDA-MB-231 cells, the EC50 was 141 nM and the “MDA-MB 231 Cell Prolif. 120 hr YMin (%)” value is 32.4%. For the same molecule, in the assay with MKN45 cells, the EC50 was 9 nM and the “MKN45 Cell Prolif. 120 hr YMin (%)” value is reported as 10.5%. At WEE1, the DC50 was 9 nM and the “293T-LentiX WEE1-ePL Degradation 4 hr YMin (%)” value is recorded as 30.2%.

Regarding `COC[C@@H]1CN(Cc2cc(F)c3nc(C4CN(CC(F)(F)F)C4)ccc3c2)C[C@H]1Oc1ccc2c(c1)CN([C@H]1CCC(=O)NC1=O)C2=O` [Example 37, (3S)-3-(5-{[(3S,4S)-1-({8-fluoro-2-[1-(2,2,2-trifluoroethyl)azetidin-3-yl]quinolin-6-yl}methyl)-4-(methoxymethyl)pyrrolidin-3-yl]oxy}-1-oxo-2,3-dihydro-1H-isoindol-2-yl)piperidine-2,6-dione], in the assay with MDA-MB-231 cells, the EC50 turned out to be 122 nM and the “MDA-MB 231 Cell Prolif. 120 hr YMin (%)” value amounted to 6.3%. In the assay on MKN45 cells, the EC50 was 1 nM and the “MKN45 Cell Prolif. 120 hr YMin (%)” value is 11.0%. For the same molecule, the “293T-LentiX WEE1-ePL Degradation 4 hr YMin (%)” value at WEE1 came to 30.1%.

Take `COC[C@@H]1CN(Cc2cc3ccc(C4CCN(CC(F)(F)F)CC4)cc3cn2)C[C@H]1Oc1ccc2c(c1)CN([C@H]1CCC(=O)NC1=O)C2=O` [Example 38, (3S)-3-(5-{[(3S,4S)-4-(methoxymethyl)-1-({7-[1-(2,2,2-trifluoroethyl)piperidin-4-yl]isoquinolin-3-yl}methyl)pyrrolidin-3-yl]oxy}-1-oxo-2,3-dihydro-1H-isoindol-2-yl)piperidine-2,6-dione]: in the assay on MDA-MB-231 cells, the EC50 was 19 nM and the “MDA-MB 231 Cell Prolif. 120 hr YMin (%)” value stood at 21.6%. In addition, in the assay with MKN45 cells, the “MKN45 Cell Prolif. 120 hr YMin (%)” value was 9.8%. At WEE1, the DC50 was 1 nM and the “293T-LentiX WEE1-ePL Degradation 4 hr YMin (%)” value is listed as 28.0%.

On to `COC[C@@H]1CN(Cc2cc3ccc(N4CCN(CC(F)(F)F)CC4)cc3cn2)C[C@H]1Oc1ccc2c(c1)CN([C@H]1CCC(=O)NC1=O)C2=O` [Example 39, (3S)-3-(5-{[(3S,4S)-4-(methoxymethyl)-1-({7-[4-(2,2,2-trifluoroethyl)piperazin-1-yl]isoquinolin-3-yl}methyl)pyrrolidin-3-yl]oxy}-1-oxo-2,3-dihydro-1H-isoindol-2-yl)piperidine-2,6-dione], for which, in the assay on MDA-MB-231 cells, the half-maximal effective concentration (EC50) came out at 25 nM and the “MDA-MB 231 Cell Prolif. 120 hr YMin (%)” value is reported as 41.6%. Further, in the assay on MKN45 cells, the 50% effective concentration (EC50) is 1 nM and the “MKN45 Cell Prolif. 120 hr YMin (%)” value was determined as 10.3%. The “293T-LentiX WEE1-ePL Degradation 4 hr YMin (%)” value on WEE1 was 31.6%.

In the case of `COC[C@@H]1CN(Cc2cc3ccc(C(C)(C)O)cc3cn2)C[C@H]1Oc1ccc2c(c1)CN([C@H]1CCC(=O)NC1=O)C2=O` [Example 40, (3S)-3-(5-{[(3S,4S)-1-{[7-(2-hydroxypropan-2-yl)isoquinolin-3-yl]methyl}-4-(methoxymethyl)pyrrolidin-3-yl]oxy}-1-oxo-2,3-dihydro-1H-isoindol-2-yl)piperidine-2,6-dione], in the assay on MDA-MB-231 cells, the EC50 is 228 nM and the “MDA-MB 231 Cell Prolif. 120 hr YMin (%)” value was 1.8%. Moreover, in the assay on MKN45 cells, the half-maximal effective concentration (EC50) was determined as 5 nM and the “MKN45 Cell Prolif. 120 hr YMin (%)” value worked out at 10.2%. Also, on WEE1, the DC50 turned out to be 3 nM and the “293T-LentiX WEE1-ePL Degradation 4 hr YMin (%)” value was found to be 30.9%.

As to `COC[C@@H]1CN(Cc2cc(F)c3nc(C(C)(C)O)ncc3c2)C[C@H]1Oc1ccc2c(c1)CN([C@H]1CCC(=O)NC1=O)C2=O` [Example 41, (3S)-3-(5-{[(3S,4S)-1-{[8-fluoro-2-(2-hydroxypropan-2-yl)quinazolin-6-yl]methyl}-4-(methoxymethyl)pyrrolidin-3-yl]oxy}-1-oxo-2,3-dihydro-1H-isoindol-2-yl)piperidine-2,6-dione], in the assay on MDA-MB-231 cells, the concentration giving a half-maximal response (EC50) came to 151 nM and the “MDA-MB 231 Cell Prolif. 120 hr YMin (%)” value turned out to be 39.1%. In the assay on MKN45 cells, the EC50 came out at 10 nM and the “MKN45 Cell Prolif. 120 hr YMin (%)” value is given as 12.5%. At WEE1, the DC50 was 22 nM and the “293T-LentiX WEE1-ePL Degradation 4 hr YMin (%)” value is 30.3%.

With `COC[C@@H]1CN(Cc2cc(F)c3nc(COC4CCOCC4)ncc3c2)C[C@H]1Oc1ccc2c(c1)CN([C@H]1CCC(=O)NC1=O)C2=O` [Example 42, (3S)-3-(5-{[(3S,4S)-1-({8-fluoro-2-[(oxan-4-yloxy)methyl]quinazolin-6-yl}methyl)-4-(methoxymethyl)pyrrolidin-3-yl]oxy}-1-oxo-2,3-dihydro-1H-isoindol-2-yl)piperidine-2,6-dione], in the assay on MDA-MB-231 cells, the concentration giving a half-maximal response (EC50) was 122 nM and the “MDA-MB 231 Cell Prolif. 120 hr YMin (%)” value is 33.0%. In the assay on MKN45 cells, the EC50 worked out at 9 nM and the “MKN45 Cell Prolif. 120 hr YMin (%)” value amounted to 12.2%. Also, at WEE1, the DC50 is 8 nM and the “293T-LentiX WEE1-ePL Degradation 4 hr YMin (%)” value was found to be 31.5%.

On to `COC[C@@H]1CN(Cc2cc(F)c3nc(COC4CCN(C)CC4)ncc3c2)C[C@H]1Oc1ccc2c(c1)CN([C@H]1CCC(=O)NC1=O)C2=O` [Example 43, (3S)-3-(5-{[(3S,4S)-1-[(8-fluoro-2-{[(1-methylpiperidin-4-yl)oxy]methyl}quinazolin-6-yl)methyl]-4-(methoxymethyl)pyrrolidin-3-yl]oxy}-1-oxo-2,3-dihydro-1H-isoindol-2-yl)piperidine-2,6-dione], for which, in the assay on MDA-MB-231 cells, the concentration for a half-maximal effect (EC50) was found to be 520 nM and the “MDA-MB 231 Cell Prolif. 120 hr YMin (%)” value was 51.3%. For the same molecule, in the assay with MKN45 cells, the EC50 worked out at 38 nM and the “MKN45 Cell Prolif. 120 hr YMin (%)” value amounted to 10.0%. Further, at WEE1, the DC50 came to 133 nM and the “293T-LentiX WEE1-ePL Degradation 4 hr YMin (%)” value is 34.3%.

Turning to `COC[C@@H]1CN(Cc2cc(F)c3nc(N4CCN(CC(F)(F)F)CC4)ccc3c2)C[C@H]1Oc1ccc2c(c1)CN([C@H]1CCC(=O)NC1=O)C2=O` [Example 44, (3S)-3-(5-{[(3S,4S)-1-({8-fluoro-2-[4-(2,2,2-trifluoroethyl)piperazin-1-yl]quinolin-6-yl}methyl)-4-(methoxymethyl)pyrrolidin-3-yl]oxy}-1-oxo-2,3-dihydro-1H-isoindol-2-yl)piperidine-2,6-dione], in the assay on MDA-MB-231 cells, the concentration for a half-maximal effect (EC50) was determined as 14 nM and the “MDA-MB 231 Cell Prolif. 120 hr YMin (%)” value amounted to 22.3%. Moreover, in the assay with MKN45 cells, the EC50 came to 1 nM and the “MKN45 Cell Prolif. 120 hr YMin (%)” value was determined as 8.9%. Besides, at WEE1, the DC50 amounted to 1 nM and the “293T-LentiX WEE1-ePL Degradation 4 hr YMin (%)” value was found to be 27.8%.

Turning to `COC[C@@H]1CN(Cc2cc(F)c3nc(C4CN(C(C)=O)C4)ncc3c2)C[C@H]1Oc1ccc2c(c1)CN([C@H]1CCC(=O)NC1=O)C2=O` [Example 45, (3S)-3-(5-{[(3S,4S)-1-{[2-(1-acetylazetidin-3-yl)-8-fluoroquinazolin-6-yl]methyl}-4-(methoxymethyl)pyrrolidin-3-yl]oxy}-1-oxo-2,3-dihydro-1H-isoindol-2-yl)piperidine-2,6-dione], in the assay on MDA-MB-231 cells, the EC50 came out at 278 nM and the “MDA-MB 231 Cell Prolif. 120 hr YMin (%)” value stood at 52.6%. In addition, in the assay with MKN45 cells, the EC50 is 35 nM and the “MKN45 Cell Prolif. 120 hr YMin (%)” value worked out at 13.4%. Besides, on WEE1, the DC50 came out at 53 nM and the “293T-LentiX WEE1-ePL Degradation 4 hr YMin (%)” value is listed as 31.5%.

The record behind these values is patent publication US20250197374A1, “WEE1 DEGRADING COMPOUNDS AND USES THEREOF” (BRISTOL-MYERS SQUIBB COMPANY, priority 2023, published 2025).
